Assay results taken from EP2401611B1, “IMPROVED METHODS FOR IDENTIFICATION” (Cambridge Enterprise Limited, priority 2009, dated 2010).
pEC50, pKd: −log10 of the molar value.

Legend:
fetal rat pituicytes = assay: Rat pituicyte GH suppression assay; type: cell-based; conditions: Rattus norvegicus; for Emax: Table 3, percentage suppression compared to vehicle, read-out: Rat pituicyte GH suppression assay Max effect (%); for pEC50: Table 3, read-out: Rat pituicyte GH suppression assay ED50
Source text: Two different assays for "classical" sstr2 functions were adopted: (1) cultured foetal rat pituitary cells secreted growth hormone which is inhibited by sstr2 agonists in a dose-dependent fashion and (2) selected glucose-sensitive sub-clones of the human Panc-1 cell line secrete insulin which is inhibited by sstr2 agonists in a dose-dependent fashion.
Methods: Cultures of fetal rat pituicytes were established exactly as previously described (Murray et al. (2004) J. Clin. Endocrinol. Metab. 89:3027-32) by enzymatic dispersion. After 48hrs in low glucose DMEM plus 10% FCS, cells in 48 well plates (5 x 10^4 cells per well) were washed for 4hrs in serum-free DMEM and then incubated with test agents at various concentrations for a further 24hrs in serum-free DMEM. At the end of this period, the conditioned medium was harvested, any cell debris removed by centrifugation and assayed for GH using a commercially available ELISA (Linco; cat# EZRMGH-45K) in accordance with the manufacturer's instructions.
Results were reported as the mean ± SD, expressed as the fold change from cells in the presence of vehicle only.

[1] = system: rat peripheral blood leukocytes; assay: Rat chemokine-induced PBMC migration assay; type: cell-based; conditions: for pEC50 / Emax: Rattus norvegicus, Leukocyte, Table 3; for pEC50: read-out: Rat chemokine-induced PBMC migration assay ED50; for Emax: read-out: Rat chemokine-induced PBMC migration assay Max effect (%); for "Classical" : "BSCI" potency ratio Rat: Table 3, rat PBMC migration ED50 versus rat pituicyte GH suppression ED50
Jurkat T cells = assay: SDF-1α induced migration of parental Jurkat T cells; type: cell-based, human
Experimental: Jurkat T cells and Jurkat-D3B cells were induced to migrate in response to 100ng/ml SDF-1α (R&D systems; the concentration of SDF-1α which induced maximal cell migration in both lines). The BSCI BN83250 was then added at various concentrations between 0nM and 1000nM (each in triplicate) to both the upper and lower compartments (at the same concentration in each compartment, so as not to create a gradient of BSCI concentration). DMSO (1% final concentration) was used as the vehicle, and was present in all wells at equal concentration.

Jurkat-D3B cells = assay: SDF-1α induced migration of Jurkat-D3B cells expressing sstr2; type: cell-based, human
Experimental: Methods: Total mRNA was prepared from Panc-1 cells (a human pancreas cell line which is well known to express high levels of sstr2) using the RNAqueous 4PCR kit (Ambion, Cat code #1914) in accordance with the manufacturer's instructions. The mRNA was then reverse transcribed (using the RETROscript kit; Ambio) to yield a cDNA preparation. A full length cDNA of the sstr2 gene was then obtained by PCR (using a Peltier PTC-200 thermal cycler using the following cycle times and conditions: 94°C for 2 min, followed by 30 cycles of 94°C, for 30 sec, 55°C for 30sec, 72°C for 1 min and finally 72°C for 10 min), and isolated by preparative gel electrophoresis. The sequence of the sstr2 cDNA was confirmed by sequencing. The sstr2 cDNA was treated with EcoRI and Xhol to generate sticky ends, which allowed directional cloning into the polylinker of the plasmid pcDNA3.1+ (Invitrogen) followed by ligation (10µl ligation reactions were run with 400 T4 DNA ligase (New England Biolabs) and the maximal amounts of DNA with an insert:plasmid ratio of 3:1 in ligase buffer incubated overnight at 13°C). The resulting vector (see Fig. 13) was used to transform XL-10 Ultracompetent cells (Stratagene) using standard techniques. Plasmid DNA was prepared using a MiniPrep kit (Wizard Plus SV Minipreps DNA purification System; Promega) in accordance with the manufacturer's instructions for transfection into Jurkat T cells.
Jurkat T cells were grown in RPMI + 10% foetal calf serum (FCS), and subcultured by 1:3 dilution in fresh medium every 4 days. Jurkat T cells in logarithmic growth phase 48 hours after subculture were washed by centrifugation and resuspended in serum-free RPMI medium at 7.5 x 10^5 cells per ml. A mixture of DNA and transfection reagent (2µg of DNA; 3µl Fugene 6 transfection reagent; Roche) was then added and the cells were incubated at 37°C for 48 hours. The cells were then washed three times by centrifugation in RPMI + 10% FCS, before being suspended in fresh medium at 1 x 10^5 cells per ml. 68 ml of the resulting cell suspension was then plated out in a total of 226 wells in 96-well plates (Corning). After 48hrs, G418 (0.9mg/ml Active G418) was added to the medium to select for transfectants, and the cells were expanded by repeated subculture, keeping the populations from individual wells (which were considered clonal or oligoclonal expansions) separate. […]
A number of individual cell lines were obtained in this way, which expressed significant levels of sstr2 on the cell surface, detected by flow cytometry using the human-sstr2 antibody (Sigma, S0694; see Example 3 for details of the flow cytometry protocol used). […]

sstr2 = sstr2 (Homo sapiens, UniProt P30874); assay: [3H]-BN83250 equilibrium binding to THP-1 cells
sstr2, sequence (P30874 whole entry): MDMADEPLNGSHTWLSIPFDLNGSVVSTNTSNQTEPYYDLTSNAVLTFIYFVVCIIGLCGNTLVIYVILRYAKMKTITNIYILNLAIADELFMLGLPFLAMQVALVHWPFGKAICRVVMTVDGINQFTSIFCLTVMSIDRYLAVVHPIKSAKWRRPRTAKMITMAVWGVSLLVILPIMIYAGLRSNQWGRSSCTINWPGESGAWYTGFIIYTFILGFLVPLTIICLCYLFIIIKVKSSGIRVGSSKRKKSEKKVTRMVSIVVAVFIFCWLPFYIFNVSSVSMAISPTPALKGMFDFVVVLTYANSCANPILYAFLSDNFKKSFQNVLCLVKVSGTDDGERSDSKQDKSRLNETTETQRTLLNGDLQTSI
Experimental: We have investigated the molecular interaction between BSCIs and the sstr2 receptor using conventional equilibrium binding studies employing labelled BSCI ligands.
For the analysis of binding, individual reactions were set up (in triplicate for each condition), with 1x10^6 THP-1 cells in Gey's Balanced Salt Solution, 10nM [^3H]-BN83250 (at 50 Ci/mmol) and various concentrations of (S)-3(2'2'-dimethylpropionoylamino)-tetrahydropyridin-2-one (10pM to 10µM). Excess (100µM) unlabelled BN83250 was used to determine the level of non-specific binding. After 2 hours at 4°C (conditions previously shown to achieve equilibrium binding, and which prevent uptake of the radioligand that would result in an over-estimate of binding) excess label was washed away by centrifugation (3 washes with 5ml of Gey's Balanced Salt Solution) and the bound radioactivity was determined by scintillation counting of the solubilised cell pellet.

## CCCCCCCCCCC(C)(C)C(=O)N[C@H]1CCCCNC1=O [BN83250, (S)-3-(2',2'-dimethyldodecanoyl)amino-caprolactam]
Fetal rat pituicytes
  Emax: 63%
  pEC50: 6.49
[1]
  pEC50: 9.55
  Emax: 100%
  "Classical" : "BSCI" potency ratio Rat: 0.0009
Jurkat T cells
  effect on SDF-1α induced migration of parental Jurkat T cell line (in words): little or no effect
Jurkat-D3B cells
  inhibition of SDF-1α induced migration of Jurkat-D3B (in words): inhibits SDF-1α induced migration
Jurkat-D3B cells; Homo sapiens, 100ng/ml SDF-1α, Jurkat-D3B, read-out: ED50 (the source's name)
  pEC50: ~8.00
Jurkat-D3B cells; Jurkat-D3B versus parental Jurkat T cells
  increase in BSCI sensitivity from ectopic expression of sstr2: more than 100 fold
sstr2
  pKd: ~7.10

## CC(C)(C)C(=O)N[C@H]1CCCNC1=O [Valerolactam, (S)-3-(2'2'-dimethylpropionoylamino)-tetrahydropyridin-2-one]
Fetal rat pituicytes
  Emax: 61%
  pEC50: 7.10
[1]
  pEC50: 10.15
  Emax: 100%
  "Classical" : "BSCI" potency ratio Rat: 0.0009
Jurkat-D3B cells
  inhibition of SDF-1α induced migration of Jurkat-D3B (in words): sensitive to inhibition
sstr2; 1nM and above
  inhibition of BN83250 binding: 80-90%
sstr2; competition with [3H]-BN83250
  Hill Slope: approximately -1.0
sstr2; read-out: ED50 for competition with [3H]-BN83250 binding at sstr2, 10nM [3H]-BN83250
  pEC50: ~10.30
